Results on two molecules are retold here after ChEMBL document CHEMBL3085644, “Structure elucidation and antimalarial activity of apicidin F: an apicidin-like compound produced by Fusarium fujikuroi” (J Nat Prod, 2013).

Where a SMILES comes first, the peptide text is derived from it. [ ]: non-standard residue; d: D form. Trp(1-OMe) = COn1cc(C[C@H](N)C(=O)O)c2ccccc21; Asu = N[C@@H](CCCCCC(=O)O)C(=O)O; dPip = O=C(O)[C@H]1CCCCN1

Assay [1] relates to Plasmodium falciparum. The assay can be described thus: Antiplasmodial activity against Plasmodium falciparum NF54 assessed as [3H]-hypoxanthine incorporation after 48 hrs by liquid scintillation counting analysis. In kind it is functional, organism-based.
The test system of assay [2] is Plasmodium falciparum. The assay can be described thus: Antiplasmodial activity against chloroquine-resistant Plasmodium falciparum Dd2 assessed as parasite growth inhibition after 48 hrs by light microscopic analysis. In kind it is functional, organism-based. Conditions: Dd2, 48 h.

One may read the IC50 as the concentration at which inhibition is half-maximal.

`COn1cc(C[C@@H]2NC(=O)[C@H](CCCCCC(=O)O)NC(=O)[C@H]3CCCCN3C(=O)[C@H](Cc3ccccc3)NC2=O)c2ccccc21` (cyclo([Asu][Trp(1-OMe)]F[dPip])): the IC50 in the assay on Plasmodium falciparum [1] came to 670 nM. Turning to `CCC(=O)CCCCC[C@@H]1NC(=O)[C@H]2CCCCN2C(=O)[C@H]([C@@H](C)CC)NC(=O)[C@H](Cc2cn(OC)c3ccccc23)NC1=O` [APICIDIN], in the assay with Plasmodium falciparum [2], the IC50 was 200 nM.
